Assay results from patent US20170166555A1, “FUNCTIONALISED AND SUBSTITUTED INDOLES AS ANTI-CANCER AGENTS” (Novogen Limited, priority 2013, published 2017).

Key:
[1] = test system: melanoma (SK-Mel-28) cells; assay: Cell viability assay (MTT, 48 hr); format: cell-based; details: Homo sapiens, 48 hr treatment, read-out: IC50 (μM) SKMEL28
Description: (§1) Cell viability assays were also conducted to assess the anti-proliferative effects of the anti-tropomyosin compounds 4001-4015. Briefly, cells (1×10^3/well) were plated (96-well) and treated (48 hr) with anti-tropomyosin drug and viability measured using 3-(4,5-dimethylthiazol-2-yl)-2,5-diphenylterazolium bromide MTT. Cell viability was normalized to control (vehicle alone) and dose-response curves, and half maximal effective concentration (EC50) values were determined using Graph Pad Prism 5 (nonlinear regression sigmoidal dose-response variable slope).

[2] = test system: neuroblastoma (SH-EP) cells; assay: Cell viability assay (MTT, 48 hr); format: cell-based; details: 48 hr treatment, read-out: IC50 (μM) SHEP
Description: as §1

[3] = test system: non-transfected and Tm5NM1 stably transfected MEFs; assay: MTT viability in non-transfected versus Tm5NM1 stably transfected MEFs; format: cell-based, mouse; details: 48 hr, FIG. 1
Description: FIG. 1: Activity of selected compounds against Tm5NM1/2 transfected mouse embryonic fibroblasts versus non-transfected MEFs.
Compounds 4001, 4010, 4014, 4008 and 4015 were then screened against non-transfected and Tm5NM1 stably transfected MEFs. Briefly, MEFs were transfected with pEYFP-C1/Tm5NM1 constructs using the Amaxa nucleofector apparatus (program A-023) and MEF nucleofector kit 1 (Lonza) according to the manufacturer's instructions. Cell viability assays were also conducted to assess the anti-proliferative effects of the anti-tropomyosin compounds. Briefly, cells (1×10^3/well) were plated (96-well) and treated (48 hr) with anti-tropomyosin compounds and viability measured using 3-(4,5-dimethylthiazol-2-yl)-2, 5-diphenylterazolium bromide MTT. Cell viability was normalized to control (vehicle alone) and dose-response curves, and half maximal effective concentration (EC50) values were determined using Graph Pad Prism 5 (nonlinear regression sigmoidal dose-response variable slope).

A375 melanoma xenograft = A375 melanoma xenograft efficacy study; format: in vivo, Foxn-1 nu/nu athymic mice; details: hydrochloride salt, 20 mg/kg intravenously QD, 15 days
Description: FIG. 6: Tumor volumes ±SEM of animals treated with Control (Carbonate vehicle) or compound 4015 (20 mg/kg, I.V., QD).
(§2) In vivo efficacy studies for compound 4015 hydrochloride salt were conducted using an A375 melanoma xenograft model in Foxn-1 nu/nu athymic mice. The human melanoma cell line A375 (sourced from American Type Culture Collection (ATCC), USA) was used for developing the flank xenograft model. Briefly, five million cells were injected subcutaneously in the right flank region of the animal. When the tumors reached 130-150 mm^3 the animals were randomized into two groups, each group with 8 animals in them, so that the average tumor volume of all the groups was same.
(§3) First group received vehicle (sodium bicarbonate buffer) intravenously once a day (QD). The second group received compound 4015 at 20 mg/kg, intravenously (QD) (Table 7). The volume of dosing to each animal was calculated and adjusted every day based on individual body weight measured prior to dosing.
(§4) Animals were treated from the day of randomization (Day 1) for 15 days. Body weight and tumor dimensions (length and diameter) were measured three times in a week including the termination day of the study. Throughout the study period, mice were monitored daily for clinical condition.

[4] = Tolerance in the A375 xenograft study (body weight, clinical observations); format: in vivo; details: hydrochloride salt, 20 mg/kg intravenously QD, 15 days
Description: FIG. 5: Average body weight measurement ±SEM (grams) of animals in Control (Carbonate vehicle) and compound 4015 (20 mg/kg, I.V., QD) treated animals.
as §2, §3, §4

[5] = test system: total actin cytoskeleton in SK-N-SH neuroblastoma cells; assay: Microfilament disruption assay, 488-Atto-Phallodin imaging and filament quantitation; format: cell-based; details: 0-40 μM, 24 h, FIG. 2
Description: (§5) FIG. 2: Imaging and quantitation of actin filaments in SK—N—SH neuroblastoma cells treated with compound (A) 4093 and (B) 4113. Cells were stained with 488-Atto-Phallodin and DAPI to visualize the actin filament bundles and the nucleus, respectively. Shown in the top panel is a representative grey scale immunofluorescent image from control (vehicle alone), 5 μM and 10 μM treated cells. […] The coloured lines indicate the detected actin filaments. Also shown is the quantitation of cell number, filament number/cell and filament number/cell area ([…]). […]
(§6) The ability of compounds 4093 and 4113 to disrupt the total actin cytoskeleton (FIG. 2) and to specifically target Tm5NM1-containing actin filaments (FIG. 3) was assessed in vitro using the microfilament disruption assay.
(§7) Briefly, SK-N-SH neuroblastoma cells were seeded at 1800 cells/well in a 384 Perkin Elmer High Content Imaging “View” plate and left to plate down 24 h prior to treatment. […] Images were then exported and changes in the organization and numbers of actin filaments within the cell were quantitated using a linear feature detection algorithm developed by the CSIRO. […] It is these “ridge lines” that correspond to actin filament bundles and allow us to quantitate the number of filaments per cell.

[6] = test system: Tm5NM1-containing actin filaments in SK-N-SH neuroblastoma cells; assay: Microfilament disruption assay, γ9d staining imaging and filament quantitation; format: cell-based; details: 0-40 μM, 24 h, FIG. 3
Description: as §5, with “FIG. 3:” for “FIG. 2:”, “with γ9d (sheep polycolonal, 1:100) followed by 488-conjugated secondary (1:1000)” for “with 488-Atto-Phallodin”, “the Tm5NM1 containing” for “the actin”
as §6, §7

Cc1c(C)n(CCCN(C)C)c2ccc(CN3CCN(CCc4ccccc4)CC3)cc12 [Compound 4015, 3-(2,3-dimethyl-5-((4-phenethylpiperazin-1-yl)methyl)-1H-indol-1-yl)-N,N-dimethylpropan-1-amine]
IC50 [1]: 6.4 µM | IC50 [2]: 4.6 µM | Selectivity: toxicity against primary MEFs versus MEFs stably transfected with Tm5NM1/2 [3]: less toxicity noted against primary mouse embryonic fibroblasts (MEFs) compared with MEFs stably transfected with Tm5NM1/2 | Reduction in tumor growth compared to control (A375 melanoma xenograft): 26% | Tolerability (body weight and clinical observations) [4]: well tolerated

Cc1c(C)n(CCCN(C)C)c2ccc(Oc3ccc(C(=O)Nc4ccc(F)cc4)cc3)cc12 [Compound 4093, 4-((1-(3-(dimethylamino)propyl)-2,3-dimethyl-1H-indol-5-yl)oxy)-N-(4-fluorophenyl)benzamide]
Disruption of the total actin cytoskeleton [5]: disrupt both the total actin cytoskeleton and Tm5NM1-containing actin filaments in a dose-dependent manner | Disruption of Tm5NM1-containing actin filaments [6]: disrupt both the total actin cytoskeleton and Tm5NM1-containing actin filaments in a dose-dependent manner
